2 compounds from PMC5084075 (ACS Central Science, 2016) can be followed below.

The structures appear in SMILES notation. Like-named read-outs stand apart in the source and are kept apart here.

The subject of series [1] is T1, Plasmodium falciparum K1 (chloroquine resistant).
T1 construct: K1
The experiment in a line: microbe, parasite or virus in culture. Set-up: species or system P. falciparum blood stage culture; whole-cell asexual blood stage P. falciparum growth inhibition. The settings on record: Batra assay, read-out: Pfal (K1) IC50 (Batra). Here is the method:
(§1) To confirm the promise of the two starting points OSM-S-5 and -6, they were evaluated against 3D7 (drug-sensitive) and K1 (chloroquine resistant) strains of Plasmodium falciparum in a whole cell assay and against HEK-293 cells as a cytotoxicity marker (Table SB1, Biological Protocols; tables with the prefix “SB” may be found in the Supporting Information). Biological data may be browsed in a static data set taken as a snapshot for this paper (Data Sets S1 (Excel), S2 (SDF)), online in a database constructed through periodic batch uploads,[68] or in a “living database” to which may be added future data;[69] the latter may be visualized in a web browser[70] using an open source system that was recently deployed in the Wikipedia Chemical Structure Explorer,[71] or the data may be downloaded and visualized offline with proprietary (Figure S4)[72] or open source (Figure S5)[73] tools). The evaluation was performed in three different institutions using different assays and widely employed controls; controls are important to assess reproducibility and interassay variability[74] but also to minimize possible bias in evaluating compounds where there are pre-existing data from other researchers already in the public domain (Figure S6).[75]

Series [2] deals with Plasmodium falciparum Pfal (strain not named in column head). Put plainly: microbe, parasite or virus in culture. Set-up: species or system P. falciparum blood stage culture; whole-cell asexual blood stage P. falciparum growth inhibition. The note with it: Batra assay. Here is the method: as §1
Series [3] has as its system T2, Plasmodium falciparum Pfal (3D7).
T2 construct: 3D7
Put plainly: microbe, parasite or virus in culture. The arrangement: species or system erythrocytes; P. falciparum asexual blood-stage whole-cell growth inhibition, IC50. The settings on record: 3D7, Erythrocyte, lab named in column head, read-out: Pfal IC50 (Batra). Here is the method:
as §1

For series [4], the system named is T3, Plasmodium falciparum Pfal (K1).
T3 construct: K1
Put plainly: microbe, parasite or virus in culture. The note with it: K1, Erythrocyte, lab named in column head, read-out: Pfal (K1) IC50 (Batra). The arrangement: species or system erythrocytes; P. falciparum asexual blood-stage whole-cell growth inhibition, IC50. Here is the method:
as §1

In the next series the target is T4, PfDHODH (Plasmodium falciparum, UniProt Q08210).
T4 sequence (Q08210 1-569): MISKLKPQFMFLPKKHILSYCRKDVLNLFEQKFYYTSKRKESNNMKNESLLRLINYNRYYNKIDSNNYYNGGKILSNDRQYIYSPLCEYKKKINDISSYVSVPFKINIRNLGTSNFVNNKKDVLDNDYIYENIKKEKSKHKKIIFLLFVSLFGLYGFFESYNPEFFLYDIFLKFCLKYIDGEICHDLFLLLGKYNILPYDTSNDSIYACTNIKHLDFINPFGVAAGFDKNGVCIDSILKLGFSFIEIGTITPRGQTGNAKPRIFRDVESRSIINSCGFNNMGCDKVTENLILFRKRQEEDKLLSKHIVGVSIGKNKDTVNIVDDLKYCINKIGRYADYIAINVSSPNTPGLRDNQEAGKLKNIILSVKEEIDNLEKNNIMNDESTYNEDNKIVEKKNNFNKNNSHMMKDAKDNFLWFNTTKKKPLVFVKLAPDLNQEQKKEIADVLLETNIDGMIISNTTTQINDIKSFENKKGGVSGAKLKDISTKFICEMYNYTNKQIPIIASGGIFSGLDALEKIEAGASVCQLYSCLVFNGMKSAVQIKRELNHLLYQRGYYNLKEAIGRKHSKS
The experiment in a line: biochemical. The note with it: read-out: DHODH. Set-up: PfDHODH enzyme inhibition IC50. An excerpt:
The potency of the near neighbor set led to an in silico target prediction study being performed on OSM-S-39 (Text S11). The method employed a naive Bayes statistical model identifying molecular structural features of small molecules with protein targets, using the ChEMBL database. Similar statistical approaches based on known activities of compounds have been successfully applied to identify targets of antitubercular compounds.[112]−[114] A total of 1,287 proteins were included for which at least 50 active compounds were known with activities <10 μM, with the other compounds in the database comprising the inactives. After the OSM compounds were scored against each target, the scores obtained were standardized by comparison with scores obtained through comparison with a random set of >10K compounds. The prediction list was culled for proteins relevant to malaria (3D7 proteome), and the analysis gave as the most likely candidate targets, in order of significance, carboxy-terminal domain RNA polymerase II polypeptide A small phosphatase 1 (Q8I3U9), dihydroorotate dehydrogenase (DHODH, Q08210), SUMO-activating enzyme subunit 2 (Q8I553) and 1 (Q8IHS2), and cyclin-dependent kinase 1 (P61075). […] A line of inquiry remaining open is the equivalent assays against the other targets identified in the in silico prediction.

Series [5] has as its target T5, hERG (human ether-à-go-go-related gene ion channel) (Homo sapiens, UniProt Q12809).
T5 construct: gene KCNH2
The experiment in a line: cell-based. Set-up: hERG channel inhibition counterscreen. The note with it: read-out: hERG pIC50 (converted). An excerpt: There is increasing awareness of the importance for drug candidates of inhibition of hERG (the human ether-à-go-go-related gene ion channel), which is sensitive to blockade by many drug-like structures. Such blockage has led to a number of prominent postmarketing withdrawals.[103] Regulators are sensitive to any hERG activity, and a hERG counterscreen is often now run early in hit characterization and series prioritization.

Series [6] is described as follows: in vitro. The note with it: plasma; mouse plasma; read-out: t1/2 plasma Mouse. The arrangement: stability in mouse plasma. Here is the method: (§2) Representative compounds from both subseries were evaluated in an oral in vivo mouse trial (Data Set S22). The original starting points OSM-S-5 and -6 (Figure 2) were chosen along with NN representative OSM-S-35 (Figure 4). […] It is plausible that at least some of the arylpyrrole ester compounds would be degraded by general hydrolysis during absorption, and this could explain their inactivity in the mouse model despite their more favorable (although still high) cLogP values. […] Esterase activity is higher in rodents than in other species,[102] as confirmed by using p-nitrophenol acetate as a control compound in this assay.

Series [7] in a line: in vitro. The arrangement: plasma stability, half-life and per cent remaining. The settings on record: plasma; plasma Mouse; read-out: t1/2 plasma Mouse. Here is the method: as §2
Series [8] deals with Plasmodium falciparum mature stage V gametocytes (DGFA). Put plainly: microbe, parasite or virus in culture. The arrangement: dual gamete formation assay, inhibition of male and female gamete formation. The note with it: 24 h. Here is the method: The discrepancy in the data arising from these two gametocyte assays may arise from the slightly different cell biology assayed (stage IV/V gametocytes vs stage V mature gametocytes) or most likely is a function of the relative compound exposure times (96 h vs 24 h).

Series [9] can be described thus: in vitro. Set-up: metabolic stability in mouse liver microsomes, LC-MS, NADPH, 0.4 mg/mL protein. The note with it: liver microsomes, mouse liver microsomes. Here is the method: (§3) The two original GSK hits (OSM-S-5 and -6) and six NN compounds were evaluated for their kinetic solubility in phosphate buffer and their metabolic stability in human liver microsomes (Table SB5, Data Sets S20 and S21).
In general terms: Liver microsomes are a subcellular fraction often used to study metabolism.

Series [10] can be described thus: in vitro. Set-up: metabolic stability in human liver microsomes, LC-MS, NADPH, 0.4 mg/mL protein. The note with it: liver microsomes, human liver microsomes. Here is the method: as §3
The subject of series [11] is Plasmodium falciparum Pfal (strain not named in column head). Put plainly: microbe, parasite or virus in culture. The arrangement: asexual blood stage P. falciparum whole-cell growth inhibition. Here is the method:
as §1

[12] abbreviates: read-out: 0.4 / CLint, in vitro / (mL/min/mg protein).
[13] abbreviates: read-out: Protein Conc. (mg/mL): / Degradation half-life /.

T5 sequence (Q12809 whole entry): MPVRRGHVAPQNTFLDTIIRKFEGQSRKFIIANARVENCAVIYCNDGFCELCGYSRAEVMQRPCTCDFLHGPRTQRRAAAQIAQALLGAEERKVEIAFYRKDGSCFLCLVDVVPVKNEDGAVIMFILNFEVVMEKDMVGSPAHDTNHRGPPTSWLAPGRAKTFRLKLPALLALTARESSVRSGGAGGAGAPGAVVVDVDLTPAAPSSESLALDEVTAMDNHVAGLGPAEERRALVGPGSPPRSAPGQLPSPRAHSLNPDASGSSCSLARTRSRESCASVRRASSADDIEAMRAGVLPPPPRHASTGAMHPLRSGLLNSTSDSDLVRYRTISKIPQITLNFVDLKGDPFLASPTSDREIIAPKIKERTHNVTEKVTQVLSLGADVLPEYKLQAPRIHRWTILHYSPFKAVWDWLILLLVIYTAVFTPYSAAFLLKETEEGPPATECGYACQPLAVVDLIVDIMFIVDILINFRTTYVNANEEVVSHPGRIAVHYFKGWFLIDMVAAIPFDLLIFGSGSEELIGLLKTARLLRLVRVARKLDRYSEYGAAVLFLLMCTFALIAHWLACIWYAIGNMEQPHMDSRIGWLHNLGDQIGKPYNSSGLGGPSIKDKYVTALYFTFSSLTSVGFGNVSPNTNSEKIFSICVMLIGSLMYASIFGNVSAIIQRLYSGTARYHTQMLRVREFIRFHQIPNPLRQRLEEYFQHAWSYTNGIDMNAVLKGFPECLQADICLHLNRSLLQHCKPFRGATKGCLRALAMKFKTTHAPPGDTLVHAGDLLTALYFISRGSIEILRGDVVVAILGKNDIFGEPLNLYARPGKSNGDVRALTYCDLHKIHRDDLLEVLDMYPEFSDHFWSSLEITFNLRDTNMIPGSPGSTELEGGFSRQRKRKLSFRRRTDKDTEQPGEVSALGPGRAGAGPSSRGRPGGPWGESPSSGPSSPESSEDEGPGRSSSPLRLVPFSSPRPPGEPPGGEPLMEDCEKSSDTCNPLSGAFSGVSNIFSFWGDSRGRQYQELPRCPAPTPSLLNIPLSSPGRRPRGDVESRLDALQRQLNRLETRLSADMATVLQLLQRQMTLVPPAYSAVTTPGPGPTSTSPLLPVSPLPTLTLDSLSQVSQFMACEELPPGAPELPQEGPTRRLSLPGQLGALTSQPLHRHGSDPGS

The inhibition is how much of the control response was suppressed. As to `Cc1cc(C(=O)OCC(N)=O)c(C)n1-c1ccc(F)cc1` [OSM-S-5], the IC50 in [1] was 641 nM; in [2] it was 581 nM; in [3], 581 nM; in [4] it was 641 nM; at PfDHODH, greater than 50000 nM; in [5], greater than 31600 nM. Moreover, the half-life in “in vitro [6]” and in “in vitro [7]” was 1.9 h in each case. Further, the inhibition at 1 µM in series [8] (female gametocytes) worked out at 13.5%; in series [8] (male gametocytes), 5.1%.
In the case of `Nc1ncnc2cc(-c3cccc(S(N)(=O)=O)c3)sc12` [OSM-S-106], the microsomal CLint in “in vitro [9]” (setting [12]) was 0.0471 mL/min/mg; in “in vitro [10]” (setting [12]), less than 0.007 mL/min/mg. Moreover, the figures for the half-life in “in vitro [9]” (setting [13]) and in “in vitro [10]” (setting [13]) were 0.613 h and greater than 4.12 h, respectively. The IC50 in [11] is 36 nM.
